Reference: patent publication US10874743B2, “IRAK degraders and uses thereof” (Kymera Therapeutics, Inc., priority 2017, dated 2020)

Target: T1, IRAK4 (Homo sapiens, UniProt Q9NWZ3)
T1 sequence (Q9NWZ3 1-460): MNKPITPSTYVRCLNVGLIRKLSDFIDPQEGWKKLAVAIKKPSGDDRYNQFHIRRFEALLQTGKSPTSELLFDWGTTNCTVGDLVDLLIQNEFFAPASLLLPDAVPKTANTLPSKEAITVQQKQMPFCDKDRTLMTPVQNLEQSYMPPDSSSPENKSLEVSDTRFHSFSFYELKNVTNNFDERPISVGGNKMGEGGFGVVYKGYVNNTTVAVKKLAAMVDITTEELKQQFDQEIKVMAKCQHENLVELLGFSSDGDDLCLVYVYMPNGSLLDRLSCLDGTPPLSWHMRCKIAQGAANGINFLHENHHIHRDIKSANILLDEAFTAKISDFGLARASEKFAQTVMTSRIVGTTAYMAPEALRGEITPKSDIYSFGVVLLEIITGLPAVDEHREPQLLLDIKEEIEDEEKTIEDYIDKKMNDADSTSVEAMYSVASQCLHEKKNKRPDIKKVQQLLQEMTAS
Test: OCI-LY-10 degradation assay (western blot, % IRAK4 degraded after 4 hours)
Assay type: cell-based
Parameters: endogenous in cells; host or cells: OCI-LY10
Settings: OCI-LY10 cells, 4 hours; for OCI-LY10 % IRAK4 Degradation (0.01 uM): 0.01 uM compound; for OCI-LY10 % IRAK4 Degradation (0.1 uM): 0.1 uM compound; for OCI-LY10 % IRAK4 Degradation (1 uM): 1 uM compound
Summary of the method: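 IRAK4 loss after 4 h at 37° C was scored A (>50%), B (>20-50%) or C (<20%) from infrared western blots of RIPA lysates, 20-25 μg protein per lane. Compound was applied at 0.003-10 μM final to OCI-LY10 cells cultured in RPMI-1640 with 20% FBS and 55 μM 2-ME.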

SMILES: O=C1CCC(N2C(=O)c3cccc(NCCOCCOCCNC(=O)c4ccc(-n5cc(NC(=O)c6coc(-c7ccnc(NCC8CC8)c7)n6)c(C(F)F)n5)cc4)c3C2=O)C(=O)N1 (stereo not drawn) [I-246]
- OCI-LY10 % IRAK4 Degradation (0.01 uM): C (<20% degradation)
- OCI-LY10 % IRAK4 Degradation (0.1 uM): A (>50% degradation)
- OCI-LY10 % IRAK4 Degradation (1 uM): A (>50% degradation)

SMILES: O=C1CCC(N2C(=O)c3cccc(NCCOCCN4CCO[C@@H](CNC(=O)c5ccc(-n6cc(NC(=O)c7coc(-c8ccnc(NCC9CC9)c8)n7)c(C(F)F)n6)cc5)C4)c3C2=O)C(=O)N1 (stereo partly drawn) [I-247]
- OCI-LY10 % IRAK4 Degradation (0.01 uM): B (>20-50% degradation)
- OCI-LY10 % IRAK4 Degradation (0.1 uM): A (>50% degradation)
- OCI-LY10 % IRAK4 Degradation (1 uM): A (>50% degradation)

SMILES: Cn1c(=O)n(C2CCC(=O)NC2=O)c2ccc(CCCOCCOCCNC(=O)c3ccc(-n4cc(NC(=O)c5coc(-c6ccnc(NCC(F)(F)F)c6)n5)c(C(N)=O)n4)cc3)cc21 (stereo not drawn) [I-248]
- OCI-LY10 % IRAK4 Degradation (0.01 uM): B (>20-50% degradation)
- OCI-LY10 % IRAK4 Degradation (0.1 uM): A (>50% degradation)
- OCI-LY10 % IRAK4 Degradation (1 uM): A (>50% degradation)

SMILES: Cn1c(=O)n(C2CCC(=O)NC2=O)c2cccc(CCCOCCOCCNC(=O)c3ccc(-n4cc(NC(=O)c5coc(-c6ccnc(NCC(F)(F)F)c6)n5)c(C(N)=O)n4)cc3)c21 (stereo not drawn) [I-249]
- OCI-LY10 % IRAK4 Degradation (0.01 uM): C (<20% degradation)
- OCI-LY10 % IRAK4 Degradation (0.1 uM): A (>50% degradation)
- OCI-LY10 % IRAK4 Degradation (1 uM): A (>50% degradation)

SMILES: O=C1CCC(N2C(=O)c3cccc(NCCOCCN4CCO[C@H](CNC(=O)c5ccc(-n6cc(NC(=O)c7coc(-c8ccnc(NCC9CC9)c8)n7)c(C(F)F)n6)cc5)C4)c3C2=O)C(=O)N1 (stereo partly drawn) [I-250]
- OCI-LY10 % IRAK4 Degradation (0.01 uM): C (<20% degradation)
- OCI-LY10 % IRAK4 Degradation (0.1 uM): A (>50% degradation)
- OCI-LY10 % IRAK4 Degradation (1 uM): A (>50% degradation)

SMILES: O=C1CCC(N2C(=O)c3cccc(NCCOCCOCCOCCOCCn4cc(NC(=O)c5coc(-c6ccnc(NCC7CC7)c6)n5)c(C(F)F)n4)c3C2=O)C(=O)N1 (stereo not drawn) [I-254]
- OCI-LY10 % IRAK4 Degradation (0.01 uM): C (<20% degradation)
- OCI-LY10 % IRAK4 Degradation (0.1 uM): C (<20% degradation)
- OCI-LY10 % IRAK4 Degradation (1 uM): B (>20-50% degradation)

SMILES: O=C1CCC(n2c(=O)oc3c(CCCOCCOCCNC(=O)c4ccc(-n5cc(NC(=O)c6coc(-c7ccnc(NCC(F)(F)F)c7)n6)c(C(F)F)n5)cc4)cccc32)C(=O)N1 (stereo not drawn) [I-256]
- OCI-LY10 % IRAK4 Degradation (0.01 uM): B (>20-50% degradation)
- OCI-LY10 % IRAK4 Degradation (0.1 uM): A (>50% degradation)
- OCI-LY10 % IRAK4 Degradation (1 uM): A (>50% degradation)

SMILES: O=C1CCC(N2C(=O)c3cccc(CCOCCN4CCC(n5cc(NC(=O)c6coc(-c7ccnc(NCC8CC8)c7)n6)c(C(F)F)n5)CC4)c3C2=O)C(=O)N1 (stereo not drawn) [I-257]
- OCI-LY10 % IRAK4 Degradation (0.01 uM): C (<20% degradation)
- OCI-LY10 % IRAK4 Degradation (0.1 uM): C (<20% degradation)
- OCI-LY10 % IRAK4 Degradation (1 uM): C (<20% degradation)

SMILES: O=C1CCC(N2C(=O)c3cccc(CCCN4CCC(n5cc(NC(=O)c6coc(-c7ccnc(NCC8CC8)c7)n6)c(C(F)F)n5)CC4)c3C2=O)C(=O)N1 (stereo not drawn) [I-259]
- OCI-LY10 % IRAK4 Degradation (0.01 uM): C (<20% degradation)
- OCI-LY10 % IRAK4 Degradation (0.1 uM): C (<20% degradation)
- OCI-LY10 % IRAK4 Degradation (1 uM): C (<20% degradation)

SMILES: O=C1CCC(N2C(=O)c3ccc(CCCNC(=O)c4ccc(-n5cc(NC(=O)c6coc(-c7ccncc7)n6)c(C(F)F)n5)cc4)cc3C2=O)C(=O)N1 (stereo not drawn) [I-260]
- OCI-LY10 % IRAK4 Degradation (0.01 uM): C (<20% degradation)
- OCI-LY10 % IRAK4 Degradation (0.1 uM): C (<20% degradation)
- OCI-LY10 % IRAK4 Degradation (1 uM): C (<20% degradation)
